Several values for one entry are separate records, joined by “and”; a condition that tells them apart may be missing. Equal entries are not always repeated. Activity calls are given as the source filed them.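 Rule for the calls: active = compounds giving half or more protection of infected cells from virus-caused growth loss, again on retest; inactive = the rest.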
Test system: CEM cells HIV-1 protection, formazan growth assay
Assay: NCI AIDS Antiviral Assay
Details: for IC50: measured here: growth of uninfected CEM cells
In short: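 Human CEM cells, uninfected and HIV-1-infected, exposed to five drug concentrations; growth measured by soluble formazan assay and scored as percent protection from infection, with protecting compounds retested.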

| Compound | EC50 | IC50 | outcome |
| --- | --- | --- | --- |
| COc1ccc(-c2c(O)c3cccc(-c4ccccc4)c3oc2=O)cc1 | > 200 µM | 93.3 µM |  |
| O=c1cnn(C2OC(C(O)CO)C(O)C2O)c(=O)[nH]1 (configuration not stated) |  |  | inactive |
| CC(/C=N/NC1=NCCCN1)=N\NC1=NCCCN1 | > 200 µM | > 200 µM |  |
| COc1ccc(-c2oc3c(OC)c(OC)cc(O)c3c(=O)c2OC)cc1 | > 200 µM | > 200 µM |  |
| CC1(CCC2C=CCC2)CCCNC1=S (configuration not stated) | 38 µM | 89.1 µM |  |
| O=C(c1nc2ccc(Cl)cc2[nH]c1=O)C(O)c1ccco1 (configuration not stated) | > 8.13 µM | 2.57 µM |  |
| O=C(/C=C/c1cc(O)c(O)c(O)c1)OCCc1ccccc1 | > 50.1 µM | 15.5 µM |  |
| Cc1cc(=O)oc2c3c(ccc12)OC(c1ccc(Br)cc1)CC3=O (configuration not stated) | > 200 µM | 46.8 µM |  |
| N#Cc1cccc(C[P+](c2ccccc2)(c2ccccc2)c2ccccc2)c1 | > 200 µM | 135 µM |  |
| N=S(=O)(c1ccccc1)c1ccccc1 |  |  | inactive |
| CC(=O)Oc1c2oc3ccc(Cl)cc3c(=O)c2c(O)c2ccsc12 | > 200 µM | > 200 µM |  |
| CCC1(O)C(=O)Nc2ccc(OC)cc2C1=O (configuration not stated) |  |  | inactive |
| N=c1n(CC(=O)NC23CC4CC(CC(C4)C2)C3)c2ccccc2n1Cc1ccc(Cl)cc1 | > 53.7 µM | 4.79 µM |  |
| Nc1cc([As](=O)(O)O)ccn1 | > 200 µM | > 200 µM |  |
| COC1N(C2CC(F)C(CO)O2)C(=O)NC(=O)C1(C)Cl (configuration not stated) | 14.5 µM and 25.1 µM | 794 µM |  |
| COC(=O)C(CCc1ccccc1I)C1=CCC2(CC1)OCCO2 (configuration not stated) | > 200 µM | 38 µM |  |
| CC(C)=CCC[C@@H](C)C1=C(Nc2ccccc2F)C(O)=C(C)C(=O)C1=O | > 200 µM | 2.14 µM |  |
| c1ccc2c(c1)SCCc1nncn1-2 | > 437 µM | > 437 µM |  |
| C=C(C)[C@H]1C2=CC(C(=O)OC)=C(C[C@H](C(=C)C)[C@@H](O)[C@@H](O)C3=C[C@H]1OC3=O)O2 | > 200 µM | 93.3 µM |  |
| COc1c(C2(c3ccc(F)cc3)SCCCS2)c(=O)c1=O | > 200 µM | > 200 µM |  |
| CC1=C(C(=O)Nc2ccc(Cl)c(C(=O)OC(C)C)c2)SCCO1 | 0.398 µM | 74.1 µM |  |
| Cc1ccc(/C=N/Nc2ncccn2)s1 | > 200 µM | > 200 µM |  |
| Cc1ccc(NCC2(/N=C/c3ccccc3)OC(CO)C(O)C2O)cc1 (configuration not stated) | > 263 µM | 6.61 µM |  |

| Compound | EC50 | IC50 | outcome |
| --- | --- | --- | --- |
| CC1(C)CC(=O)C(CC2C(=O)CCCC2=O)C(=O)C1 | > 955 µM | 891 µM |  |
| O=C(O)C1SCCCS1 | > 1510 µM | > 1510 µM |  |
| COC1C(N)C(OC2C(Oc3cccc4c(O)c5c(=O)oc6ccc(C)c7c(=O)oc(c34)c5c67)OC(C)C(O)C2(C)O)OC(C)C1O (configuration not stated) | > 0.2 µM | 0.0363 µM |  |
| CCCOc1cnc([C@H]2CCC3[C@@H]4CC=C5C[C@@H](OC(=O)CCC(=O)O)CC[C@]5(C)C4CC[C@@]32C)s1 (some centres not stated) | > 47.9 µM | 19.1 µM |  |
| C1=NCCNCCNCCN=Cc2ccccc2OCc2cccc(n2)COc2ccccc21 | > 50.1 µM | 7.76 µM |  |
| NC(CSS(=O)(=O)O)=NCCCCN=C(N)CSS(=O)(=O)O | > 200 µM | > 200 µM |  |
| Clc1ccc(C2=CCN3CC=C(c4ccc(Cl)cc4)C23)cc1 | > 200 µM | 10.7 µM |  |
| COc1ccc(N2C(=O)/C(=C\c3cc(OC)c(OC)c(OC)c3)SC2c2ccccc2)cc1 (configuration not stated) | > 200 µM | 51.3 µM |  |
| CC1(C)CC(=O)C2=C(C1)OC1=C(CC(C)(C)CC1=O)C2c1ccccc1[N+](=O)[O-] (configuration not stated) | > 200 µM | > 200 µM |  |
| CC12CCC3c4ccc(OS(=O)(=O)O)cc4CCC3C1CC(O)C2O (configuration not stated) |  |  | inactive |
| COc1cc(C(CN)N(C)C)cc(OC)c1OC (configuration not stated) | > 200 µM | > 200 µM |  |
| COc1ccc(/C=C2\CCCc3ccccc3C2=O)cc1 | > 200 µM | 0.145 µM |  |
| O=c1ccn(COC(COCc2ccccc2)COCc2ccccc2)c(=O)[nH]1 |  |  | inactive |
| C(/C=C/Nc1ccc(Oc2ccccc2)cc1)=Nc1ccc(Oc2ccccc2)cc1 | > 200 µM | 9.33 µM |  |
| Cc1nc2ccc(S(=O)(=O)Nc3nccs3)cc2c(=O)n1NS(=O)(=O)c1nccs1 | > 200 µM | 49 µM |  |
| CNC1=CC(=O)C2=C(C1=O)[C@H]1CC[C@]3(C)C(=O)CC[C@H]3[C@@H]1CC2 | > 200 µM | 30.2 µM |  |
| CCCCCCCCCCNC1CC(OC2CC(O)(C(O)CO)Cc3c(O)c4c(c(O)c32)C(=O)c2c(OC)cccc2C4=O)OC(C)C1O (configuration not stated) |  |  | inactive |
| O=[N+]([O-])c1ncn(S(=O)(=O)c2cccc3cccnc23)n1 | > 200 µM | > 200 µM |  |
| OCC1OC(n2cnc3c2NC=NCC3O)C(Cl)C1O (configuration not stated) | > 295 µM | > 295 µM |  |
| C=C(C[N+](C)(C)C)N/N=C/c1oc(-c2ccc(OC)c(OC)c2)c(-c2ccc(OC)c(OC)c2)c1[N+](=O)[O-] | > 12.9 µM | > 12.9 µM |  |
| O=S(O)CCCCSSCCCCS(=O)(O)=S |  |  | inactive |
| CC/C(C)=C1/CC(C)(C)N=C1C | > 200 µM | 89.1 µM |  |
| Cc1cc(-c2ccccc2)[s+]s1 | > 200 µM | 89.1 µM and 174 µM |  |

| Compound | EC50 | IC50 | outcome |
| --- | --- | --- | --- |
| Cc1ccc(SSc2ccc([N+](=O)[O-])cc2[N+](=O)[O-])cc1 | > 200 µM | 9.12 µM |  |
| O=c1oc2ccccc2cc1-c1ccccc1 | > 162 µM | > 162 µM |  |
| O=C1C(=C2CCCC2)CC/C1=C1/SS/C(=C2/CCC(=C3CCCC3)C2=O)S1 | > 200 µM | 120 µM |  |
| C=CCCCC1CCCNC1=S (configuration not stated) | > 275 µM | > 275 µM |  |
| CCCC(C)C(N)=Nc1ccc(Cl)c(Cl)c1 (configuration not stated) | > 200 µM | 45.7 µM |  |
| CN(C)c1ccc(/C=C(\NC(=O)c2ccccc2)C(=O)NCC(=O)O)cc1 | > 100 µM | > 100 µM |  |
| COc1ccc(/C=C2\SC(=S)N(/C=C(/C#N)C(=O)c3ccc4ccccc4c3)C2=O)cc1OC | > 200 µM | 11.7 µM |  |
| CC1=CCN(c2ccccn2)OC1c1ccccc1 (configuration not stated) | > 74.1 µM | > 74.1 µM |  |
| O=C(NC1C(=O)NNC1c1cccc([N+](=O)[O-])c1)c1ccccc1 (configuration not stated) | > 288 µM | > 288 µM |  |
| COc1ccc(-c2nc(N)c(C#N)c3c2CCS(=O)(=O)c2ccc(C)cc2-3)cc1OC | > 200 µM | 11.2 µM |  |
| OCC1CC(F)C(n2cnc3c(NO)ncnc32)O1 (configuration not stated) | > 151 µM | > 151 µM |  |
| O=C(c1ccccc1)C(c1ccccc1)C1(O)C(=O)Nc2c(Cl)cc(Cl)cc21 (configuration not stated) | > 63.1 µM | > 63.1 µM |  |
| N#C/C(=C\NC(=S)Nc1cc(Cl)ccc1Cl)c1nc2ccccc2s1 | > 100 µM | > 100 µM |  |
| OCCSCCCSCCO | > 95.5 µM | 72.4 µM |  |
| O=C1NC(=O)C(C(=O)C(=O)Nc2cccc(C(F)(F)F)c2)C(=O)N1 | > 39.8 µM | > 39.8 µM |  |
| O=C1/C(=C/c2ccccc2)CN(C(=O)Oc2ccc([N+](=O)[O-])cc2)C/C1=C\c1ccccc1 |  |  | inactive |
| CC(C)(C)NNC(=O)CCn1[nH]c(=O)c(Cl)c(Cl)c1=O | > 407 µM | > 407 µM |  |
| O=C(Oc1ccccc1)c1cccc(C(=O)Oc2ccccc2)c1 | > 16.2 µM | > 16.2 µM |  |
| Cc1cc(=O)[nH]c(NN2C(Cl)C(=O)C2c2ccc(O)cc2)n1 (configuration not stated) | > 42.7 µM | 6.76 µM |  |
| O=C(O)CCC(NC(=O)c1ccc(CNc2nc3ccccc3nc2C(=O)O)cc1)C(=O)O (configuration not stated) | > 200 µM | > 200 µM |  |
| Cc1ccc(C2=C(c3ccccc3)C(Br)(c3ccccc3)C(c3ccccc3)=C2c2ccc(C)cc2)cc1 | > 26.9 µM | > 26.9 µM |  |
| CC1(C)S[C@@H]2[C@H](NC(=O)C3(N)CCCC3)C(=O)N2[C@H]1C(=O)O | > 200 µM | > 200 µM |  |
| CC1(O)/C(=N/O)CC2CC1C2(C)C (configuration not stated) | > 1350 µM | > 1350 µM |  |

| Compound | EC50 | IC50 | outcome |
| --- | --- | --- | --- |
| COc1cc2c(cc1C)C1=C(C)C(=O)OC1[C@@H](O)[C@@H]2C (some centres not stated) | > 661 µM | 245 µM |  |
| O=C(NNC(=S)Nc1ccccc1)c1cc(-c2ccccc2)nc2ccccc12 | > 200 µM | 21.9 µM |  |
| CCN=c1cc2oc3cc(NCC)c(C)cc3c(-c3ccccc3C(=O)OCC)c-2cc1C | > 200 µM | 0.0631 µM and 0.12 µM |  |
| CCCCCCCCCCCCSSC(=S)OC(C)C | > 200 µM | > 200 µM |  |
| CC(C)CC1CC2C(=O)N(c3ccccc3)C(=O)C2c2[nH]c3ccccc3c21 (configuration not stated) |  |  | inactive |
| CC(=O)OCC1OC(n2cnc3nc(Br)[nH]c(=O)c32)C(OC(C)=O)C1OC(C)=O (configuration not stated) | 61.7 µM | > 200 µM |  |
| O=C(O)C(CSSCC(NC(=O)C(F)(F)F)C(=O)O)NC(=O)C(F)(F)F (configuration not stated) | > 200 µM | > 200 µM |  |
| C=CCN1C(=O)C(c2ccccc2)(c2ccccc2)NC1=S | > 85.1 µM | > 85.1 µM |  |
| CC(=O)OC(C(=O)[O][Sn]([CH3])([CH3])[CH3])c1ccccc1 (configuration not stated) |  |  | inactive |
| O=C1CSC(c2ccccc2)N1c1ccc(-c2ccc(-n3c(-c4ccccc4)nc4ccccc4c3=O)cc2)cc1 (configuration not stated) | > 200 µM | 44.7 µM |  |
| O=C(Sc1ccccc1)n1nc(Cl)c2ccc([N+](=O)[O-])cc21 | > 200 µM | 43.7 µM |  |
| O=c1[nH]c2nc3ccccc3c(=O)n2/c1=C/c1ccccc1 | > 200 µM | 9.12 µM |  |
| COc1cccc2c1OC(=O)NC2O (configuration not stated) |  |  | inactive |
| COC(=O)c1cc(C(=CCCO)c2cc(Br)c(OC)c(C(=O)OC)c2)cc(Br)c1OC | > 200 µM | 12.6 µM |  |
| Cc1cc(Br)ccc1N=NC1C(=O)ON=C1c1ccccc1 (configuration not stated) |  |  | inactive |
| NC(N)=N/N=C/c1ccc[nH]1 | > 200 µM | > 200 µM |  |
| O/C(=C\c1nc2ccccc2nc1/C=C(\O)c1ccc(Cl)cc1)c1ccccc1 | > 200 µM | 6.46 µM |  |
| C/C(=N/c1[nH]c(=O)cc2c1C(=O)CC2)N(C)C | > 200 µM | > 200 µM |  |
| CN1C(=O)C(Cl)(C(Cl)(Cl)S(=O)(=O)O)C(=O)c2ccccc21 (configuration not stated) |  |  | inactive |
| Cc1ccc(OC(=O)N2C/C(=C\c3ccccc3)C(=O)/C(=C/c3ccccc3)C2)cc1 |  |  | inactive |
| Cn1c(SCc2ccc(F)cc2)nnc1C12CC3CC(CC(C3)C1)C2 | > 200 µM | 105 µM |  |
| O=C1OC(c2cccc3c(F)cccc23)c2ccccc21 (configuration not stated) |  |  | inactive |

Source: PubChem BioAssay AID179 (DTP/NCI, 2004)
